Results taken from paper PMC3945819, “Ligand-Dependent Dynamics of the Active-Site Lid in Bacterial Dimethylarginine Dimethylaminohydrolase” (Biochemistry, 2014).
Residue numbers refer to the chain shown, from its start. Entries after “also recorded” stand apart in the source; their conditions may differ.

Experiments:
unmodified DM-PaDDAH = details: estimated previously for unmodified DM-PaDDAH; cited from earlier work
[1] = target: T1, MDCC-Ser20Cys DM-PaDDAH (fl-DM-PaDDAH) (Pseudomonas aeruginosa, UniProt Q9I4E3, R40E/R98H/S20C); assay: Stopped-flow fluorescence binding kinetics with fl-DM-PaDDAH
T1 construct: the 254 residue DM-PaDDAH; polyhistidine (cleaved yes); made in house; host or cells: Escherichia coli BL21 (DE3)
T1 sequence (Q9I4E3 1-254 S20C/R40E/R98H): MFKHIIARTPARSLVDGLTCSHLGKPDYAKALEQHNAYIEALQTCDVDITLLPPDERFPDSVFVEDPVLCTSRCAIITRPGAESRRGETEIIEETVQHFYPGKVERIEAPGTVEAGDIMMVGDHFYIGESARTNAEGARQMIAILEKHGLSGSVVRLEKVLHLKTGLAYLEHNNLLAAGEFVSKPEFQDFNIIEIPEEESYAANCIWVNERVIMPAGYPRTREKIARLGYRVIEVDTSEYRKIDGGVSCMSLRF
Protocol: (§1) Stopped-flow experiments were carried out in buffer A at 25 °C using a HiTech SF61 DX2 stopped-flow instrument equipped with a Xe/Hg lamp (TgK Scientific, UK). MDCC fluorescence was excited at 436 nm, and emission was detected by a photomultiplier after a 455 nm cutoff filter (Schott glass). Protein (1 μM) was mixed with the ligand (ADMA or L-citrulline) at various concentrations up to 4 mM. In the mixing cell, concentrations were half these. Each fluorescence time course was fitted to a single exponential function [drawing 1] with the observed first-order rate constant, kobs, and maximum fluorescence change, ΔFmax.
(§2) For mixing L-citrulline with MDCC-Ser20Cys TM-PaDDAH (fl-TM-PaDDAH), the dependence of kobs on L-citrulline concentration ([L-cit]) was linearly fitted for the association reaction: [drawing 2] [drawing 3] For the mixing of L-citrulline with MDCC-Ser20Cys DM-PaDDAH (fl-DM-PaDDAH) conversion of the substrate to products is included, using this reaction scheme: [drawing 4] [drawing 5] where kcat is the rate constant for the conversion of the enzyme–substrate complex to dissociated products. Under the pseudo-first-order conditions of the experiment, where the change in fluorescence was attributed to the formation of the fl-DM-PaDDAH/ADMA complex, the dependence of kobs on ADMA concentration was fitted to a straight-line graph: [drawing 6]

[2] = target: T2, MDCC-Ser20Cys TM-PaDDAH (fl-TM-PaDDAH) (Pseudomonas aeruginosa, UniProt Q9I4E3, C249S/R40E/R98H/S20C); assay: MDCC fluorescence titration, Ser20Cys variant; type: binding
T2 construct: polyhistidine (cleaved yes); made in house; host or cells: Escherichia coli BL21 (DE3)
T2 sequence (Q9I4E3 1-254 S20C/R40E/R98H/C249S): T1 sequence (Q9I4E3 1-254 S20C/R40E/R98H) with C249S
Protocol: (§3) DM- or TM-PaDDAH constructs were mutated to contain an additional, solvent-exposed Cys residue at residue positions corresponding to Thr19, Ser 20, Ser84, and Asp244. Following expression, the purified proteins were each incubated in buffer A with 1 mM dithiothreitol (DTT) for 0.5 h. The sample was then passed through a desalting PD-10 column (GE Healthcare) in buffer A and concentrated to 100 μM. N-[2-(1-Maleimidyl)ethyl]-7-(diethylamino)coumarin-3-carboxamide (MDCC)[32] dissolved in DMF (20 mM) was added to a 2-fold excess, and the solution was incubated for 1 h. The reaction mixture was passed again through a fresh desalting column to remove unreacted label. The labeled protein concentration was measured by spectrophotometry (ε430 (MDCC) = 46 800 M^–1 cm^–1, ε280(MDCC) = 7470 M^–1 cm^–1, ε280(PaDDAH) = 18 910 M^–1 cm^–1). Formation of the product was assessed by electrospray ionization mass spectrometry.
(§4) PaDDAH fluorescence spectra were measured at 25 °C on an FP-6300 spectrofluorometer (Jasco Ltd.) in buffer A. MDCC fluorescence was excited at 430 nm and emission was recorded at 476 nm. The change in fluorescence emission intensity with ligand concentration was fit to a 1:1 binding isotherm using nonlinear least-squares Python code written in-house.

TM-PaDDAH = target: T3, TM-PaDDAH (Pseudomonas aeruginosa, UniProt Q9I4E3, C249S/R40E/R98H); assay: Substrate conversion by TM-PaDDAH observed by 1D 1H NMR; type: biochemical; details: conversion of ADMA to DMA and L-citrulline, high TM-PaDDAH concentration, over hours
T3 construct: polyhistidine (cleaved yes); made in house; host or cells: Escherichia coli BL21 (DE3)
T3 sequence (Q9I4E3 1-254 R40E/R98H/C249S): T1 sequence (Q9I4E3 1-254 S20C/R40E/R98H) with C20S, C249S
Protocol: (§5) For NMR measurements, the protein samples were prepared at 0.8 mM concentration (for resonance assignments and relaxation measurements) or 0.3 mM (for ligand titrations) in buffer A, supplemented with 10% v/v D2O. Saturating concentrations of L-citrulline were included in the bound state samples: 15 mM for DM-PaDDAH and 1.0 mM for TM-PaDDAH. A variety of NMR spectrometers were used during this work: resonance assignments were obtained from 3D triple resonance data sets (HNCA, HNCACB, CBCACONH, HNCO, HN(CA)CO)[12] obtained at either 600 or 700 MHz ^1H frequency. Two-dimensional ^15N, ^1H-HSQC experiments to monitor ligand binding were recorded using a 700 MHz instrument. ^15N relaxation measurements[13],[14] were performed at both 600 and 800 MHz. The majority of the data sets were recorded using a cryogenically cooled triple resonance probe, with the sample temperature maintained at a calibrated 25 °C. The pulse sequences employed H2O-selective “flip-back” pulses and WATERGATE to minimize the effects of H^N-resonance cross-saturation.[15],[16] Ligand-induced chemical shift perturbations differences for ligand titrations were computed using the formula Δδ = [(Δδ^1H^N)^2 + (Δδ^15N/5)^2]^1/2.

[3] = target: T4, DM-PaDDAH (Arg40Glu/Arg98His double mutant PaDDAH) (Pseudomonas aeruginosa, UniProt Q9I4E3, R40E/R98H); assay: NMR 15N,1H-HSQC ligand titration of DM-PaDDAH; type: binding; details: for binding of byproduct to the protein by NMR titration: separate NMR titrations
T4 construct: the 254 residue DM-PaDDAH; polyhistidine (cleaved yes); made in house; host or cells: Escherichia coli BL21 (DE3)
T4 sequence (Q9I4E3 1-254 R40E/R98H): T1 sequence (Q9I4E3 1-254 S20C/R40E/R98H) with C20S
Protocol: as §5

[4] = target: T2, MDCC-Ser20Cys TM-PaDDAH (fl-TM-PaDDAH); assay: Stopped-flow fluorescence binding kinetics with fl-TM-PaDDAH
Protocol: as §1, §2

MDCC-Thr19Cys TM-PaDDAH = target: T5, MDCC-Thr19Cys TM-PaDDAH (Pseudomonas aeruginosa, UniProt Q9I4E3, C249S/R40E/R98H/T19C); assay: MDCC fluorescence titration, Thr19Cys variant; type: binding; details: static MDCC fluorescence titration, 25 °C, buffer A; fluorescence decreased; read-out: equilibrium dissociation constant
T5 construct: polyhistidine (cleaved yes); made in house; host or cells: Escherichia coli BL21 (DE3)
T5 sequence (Q9I4E3 1-254 T19C/R40E/R98H/C249S): T1 sequence (Q9I4E3 1-254 S20C/R40E/R98H) with T19C, C20S, C249S
Protocol: as §3, §4

MDCC-Ser84Cys TM-PaDDAH = target: T6, MDCC-Ser84Cys TM-PaDDAH (Pseudomonas aeruginosa, UniProt Q9I4E3, C249S/R40E/R98H/S84C); assay: MDCC fluorescence titration, Ser84Cys variant; type: binding; details: static MDCC fluorescence titration, 25 °C, buffer A; fluorescence decreased; read-out: equilibrium dissociation constant
T6 construct: polyhistidine (cleaved yes); made in house; host or cells: Escherichia coli BL21 (DE3)
T6 sequence (Q9I4E3 1-254 R40E/S84C/R98H/C249S): T1 sequence (Q9I4E3 1-254 S20C/R40E/R98H) with C20S, S84C, C249S
Protocol: as §3, §4

MDCC-Asp244Cys TM-PaDDAH = target: T7, MDCC-Asp244Cys TM-PaDDAH (Pseudomonas aeruginosa, UniProt Q9I4E3, C249S/D244C/R40E/R98H); assay: MDCC fluorescence titration, Asp244Cys variant; type: binding; details: static MDCC fluorescence titration, 25 °C, buffer A; fluorescence decreased; read-out: equilibrium dissociation constant
T7 construct: polyhistidine (cleaved yes); made in house; host or cells: Escherichia coli BL21 (DE3)
T7 sequence (Q9I4E3 1-254 R40E/R98H/D244C/C249S): T1 sequence (Q9I4E3 1-254 S20C/R40E/R98H) with C20S, D244C, C249S
Protocol: as §3, §4

[5] = target: T8, TM-PaDDAH (Arg40Glu/Arg98His/Cys249Ser triple mutant PaDDAH) (Pseudomonas aeruginosa, UniProt Q9I4E3, C249S/R40E/R98H); assay: NMR 15N,1H-HSQC ligand titration of TM-PaDDAH; type: binding; details: NMR peak intensity titration (Gly24, Glu158, Lys159), 0.3 mM TM-PaDDAH, 25 °C; read-out: dissociation constant KD^(TM/L-cit)
T8 construct: polyhistidine (cleaved yes); made in house; host or cells: Escherichia coli BL21 (DE3)
T8 sequence (Q9I4E3 1-254 R40E/R98H/C249S): T1 sequence (Q9I4E3 1-254 S20C/R40E/R98H) with C20S, C249S
Protocol: as §5

wild-type PaDDAH = details: wild-type protein; read-out: Ki^(L-cit); cited from earlier work
Cys249 = Cys249 (UniProt position 249, DGGVSCMSLRF); details: ligand-free (absence of ligand); cited from earlier work

CN(C)C(=N)NCCCC(N)C(=O)O (stereo not drawn) [ADMA, asymmetric N^η,N^η-dimethylarginine]
kcat (unmodified DM-PaDDAH): 0.5 s^–1
binding tighter than for the reaction product L-citrulline ([1]; KD^(DM/ADMA) versus KD^(DM/L-cit)): 30 fold
koff^(DM/ADMA) ([1]; assuming kcat = 0.5 s^–1): 2.0 s^–1
kon^(DM/ADMA) ([1]; stopped-flow, linear fit of kobs vs concentration, 25 °C): 1.8 × 10^5 M^–1 s^–1
fluorescence response / binding of substrate to fl-TM-PaDDAH ([2]; low protein concentrations of fluorescence experiments): no fluorescence change; also recorded: no evidence of substrate binding or turnover
catalytic activity of the mutant enzyme (TM-PaDDAH): ~0.04 h^–1

NC(=O)NCCC[C@H](N)C(=O)O [L-citrulline]
Kd ([3]; NMR chemical shift titration, 0.3 mM DM-PaDDAH, 1:1 model, buffer A pH 7.0, 25 °C, read-out: dissociation constant KD^(DM/L-cit)): 3600 ± 100 µM
koff ([3]; from NMR KD and assumed kon similar to kon^(TM/L-cit) and kon^(DM/ADMA), read-out: koff^(DM/L-cit) predicted): ~500 s⁻¹
Kd ([4]; from stopped-flow binding kinetics, read-out: predicted equilibrium dissociation constant KD^(TM/L-cit) (= koff/kon)): 8.4 µM
koff ([4]; stopped-flow, linear fit of kobs vs concentration, 25 °C, read-out: koff^(TM/L-cit)): 0.86 s⁻¹
kon ([4]; stopped-flow, linear fit of kobs vs concentration, 25 °C, read-out: kon^(TM/L-cit)): 100000 M⁻¹ s⁻¹
fluorescence signal for binding to fl-DM-PaDDAH [1]: no signal for binding
Kd (MDCC-Thr19Cys TM-PaDDAH): 10.8 ± 1.1 µM
Kd ([2]; static MDCC fluorescence titration, 25 °C, buffer A, fluorescence increased, read-out: equilibrium dissociation constant): 7.2 ± 1.6 µM
Kd (MDCC-Ser84Cys TM-PaDDAH): 15.7 ± 2.8 µM
Kd (MDCC-Asp244Cys TM-PaDDAH): 23.5 ± 2.7 µM
Kd [5]: 3.5 ± 1.5 µM
Ki (wild-type PaDDAH): 8400 µM

CNC [dimethylamine]
binding of byproduct to the protein by NMR titration [3]: did not detectably bind

CN [methylamine]
binding of byproduct to the protein by NMR titration [3]: did not detectably bind

Dimethylarginine dimethylaminohydrolase (PaDDAH) (Pseudomonas aeruginosa)
pKa (Cys249): 8.8
